# According to patent US9499510B2, “Pro-drug compounds” (Proximagen Limited, priority 2012, dated 2016):
# Where a name gives a salt, the structure may show the parent alone.
# Experiments:
# [1] = Solubility in aqueous solution (pH 2 to 10); format: physicochemical
# Text: In an embodiment, prodrugs of the present invention are suitable for oral administration. The skilled person understands that the pH of the gastrointestinal tract changes along its length. For example, the stomach has a pH of around pH 1.5 and the GI tract after the stomach has a pH of around 5 to 7.5. For more detail see, for example, Measurement of gastrointestinal pH profiles in normal ambulant human subjects, Gut. 1988 August; 29(8): 1035-1041. Improved solubility is expected to result in improved absorption, and therefore improved oral bioavailability. Thus improved solubility at any pH value between around pH 1.5 to 8 is expected to improve oral bioavailability. Compounds of the invention were assessed for solubility in aqueous solutions having a pH of from 2 to 10. In an embodiment prodrugs of the invention have a solubility of >0.5 mg/mL in an aqueous solution having a pH of from 2 to 10, including from 2 to 8. In an embodiment prodrugs have a solubility of >5.0 mg/mL, or >10.0 mg/mL, >100.0 mg/mL, or >200.0 mg/mL in an aqueous solution having a pH of from 2 to 10, including from 2 to 8. In an embodiment the prodrugs have the aforementioned aqueous solubility at a pH within the range of from 4 to 8, or from 6 to 8.
# In an embodiment, prodrugs of the invention are administered intravenously. High prodrug solubility is advantageous in order to reduce the volume of solution administered to the patient, and to reduce the risk of damage to the circulatory system. Solubility in an aqueous solution having a pH of from 2 to 10 of >10 mg/mL is preferred. Yet more preferred is solubility in an aqueous solution having a pH of from 2 to 10 of >30 mg/mL or >100.0 mg/mL. Yet more preferred is solubility in an aqueous solution having a pH of from 2 to 10 of >200.0 mg/mL. The solubility is measured in an aqueous solution having a pH of from 2 to 10, which pH range is advantageous for intravenous prodrug delivery. See, for example, A guide on intravenous drug compatibilities based on their pH, Nasser S C et al./Pharmacie Globale (IJCP) 2010, 5 (01)). In an embodiment the prodrugs of the claimed invention have solubility of >10 mg/mL in an aqueous solution having a pH of from 2 to 10. In an embodiment the prodrugs have the aforementioned aqueous solubility at a pH within the range of from 2 to 8, or from 4 to 8, or from 6 to 8. The solubility of the Examples is illustrated in Table 1.
# [2] = molecular target: T1, human ether a go-go related gene (hERG) K+ channel (Homo sapiens, UniProt Q12809); experiment: hERG assay, IonWorks patch clamp electrophysiology; format: cell-based; conditions: Chinese Hamster Lung cell line stably expressing hERG; maximum assay concentration 33 uM
# T1 construct: Chinese Hamster Lung cell line stably expressing the full length hERG channel; expressed in transfected cells; host or cells: Chinese Hamster Lung cell line
# Description: Compounds of the invention were tested for inhibition of the human ether a go-go related gene (hERG) K^+ channel using IonWorks patch clamp electrophysiology. 8 Point concentration-response curves were generated on two occasions using 3-fold serial dilutions from the maximum assay concentration (33 uM). Electrophysiological recordings were made from a Chinese Hamster Lung cell line stably expressing the full length hERG channel. Single cell ion currents were measured in the perforated patch clamp configuration (100 ug/mL amphoterocin) at room temperature using an IonWorks Quattro instrument. The internal solution contained 140 mM KCl, 1 mM MgCl2, 1 mM EGTA and 20 mM HEPES and was buffered to pH 7.3. The external solution contained 138 mM NaCl, 2.7 mM KCl, 0.9 mM CaCl2, 0.5 mM MgCl2, 8 mM Na2HPO4 and 1.5 mM KH2PO4, and was buffered to pH 7.3. Cells were clamped at a holding potential of […] for 30 s and then stepped to +40 mV for 1 s. This was followed by a hyperpolarising step of 1 s to […] to evoke the hERG tail current. This sequence was repeated 5 times at a frequency of 0.25 Hz. Currents were measured from the tail step at the 5th pulse, and referenced to the holding current. Compounds were incubated for 6-7 min prior to a second measurement of the hERG signal using an identical pulse train. A minimum of 17 cells were required for each pIC50 curve fit. […]
# T1 sequence (Q12809 whole entry): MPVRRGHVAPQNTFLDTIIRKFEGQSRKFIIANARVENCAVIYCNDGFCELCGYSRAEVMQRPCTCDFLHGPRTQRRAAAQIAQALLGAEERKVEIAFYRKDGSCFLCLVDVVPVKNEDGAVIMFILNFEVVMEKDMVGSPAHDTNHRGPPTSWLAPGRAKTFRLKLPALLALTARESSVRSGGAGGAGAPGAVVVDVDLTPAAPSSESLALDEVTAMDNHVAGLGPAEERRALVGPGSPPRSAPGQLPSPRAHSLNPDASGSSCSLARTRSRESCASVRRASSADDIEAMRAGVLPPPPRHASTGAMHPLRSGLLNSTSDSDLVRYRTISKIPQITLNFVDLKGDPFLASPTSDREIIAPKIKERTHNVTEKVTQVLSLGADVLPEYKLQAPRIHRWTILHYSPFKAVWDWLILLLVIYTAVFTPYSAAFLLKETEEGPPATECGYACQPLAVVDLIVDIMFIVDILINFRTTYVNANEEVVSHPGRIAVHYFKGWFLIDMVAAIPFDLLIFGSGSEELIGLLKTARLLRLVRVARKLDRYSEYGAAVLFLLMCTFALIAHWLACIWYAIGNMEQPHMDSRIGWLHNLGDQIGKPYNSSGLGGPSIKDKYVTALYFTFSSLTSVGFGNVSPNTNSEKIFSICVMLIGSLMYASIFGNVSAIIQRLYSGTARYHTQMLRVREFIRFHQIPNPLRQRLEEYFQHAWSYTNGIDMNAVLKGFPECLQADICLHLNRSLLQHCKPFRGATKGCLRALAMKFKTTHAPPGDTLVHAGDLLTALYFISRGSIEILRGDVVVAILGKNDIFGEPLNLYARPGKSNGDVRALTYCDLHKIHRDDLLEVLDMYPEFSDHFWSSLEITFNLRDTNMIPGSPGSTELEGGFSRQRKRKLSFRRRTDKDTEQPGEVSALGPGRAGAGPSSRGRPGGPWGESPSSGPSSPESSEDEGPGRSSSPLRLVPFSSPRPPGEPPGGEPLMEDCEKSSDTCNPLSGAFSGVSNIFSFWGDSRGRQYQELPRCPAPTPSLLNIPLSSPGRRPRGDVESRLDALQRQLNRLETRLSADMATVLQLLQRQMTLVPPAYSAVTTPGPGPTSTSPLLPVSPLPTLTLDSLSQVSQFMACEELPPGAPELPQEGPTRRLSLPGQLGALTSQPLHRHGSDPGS
structure (smiles),measurement,setting,value
"CC(=O)c1ccc2c(c1)[C@H](NC(=O)c1ccc(F)c(Cl)c1)[C@H](OP(=O)(O)O)C(C)(C)O2 [Example 1, {[(3S,4S)-6-Acetyl-4-[(3-chloro-4-fluorobenzene)amido]-2,2-dimethyl-3,4-dihydro-2H-1-benzopyran-3-yl]oxy}phosphonic acid]",solubility,"[1]; pH 5.7, aqueous buffer",> 50000 µg/mL
same,IC50,[2],> 11 µM
"CC(=O)c1ccc2c(c1)[C@H](NC(=O)c1ccc(F)c(Cl)c1)[C@H](OC(=O)CN(C)C)C(C)(C)O2 [Example 2, (3S,4S)-6-Acetyl-4-[(3-chloro-4-fluorobenzene)amido]-2,2-dimethyl-3,4-dihydro-2H-1-benzopyran-3-yl 2-(dimethylamino)acetate hydrochloride]",solubility,"[1]; pH 3.6, aqueous buffer",> 20000 µg/mL
"CC(=O)O[C@H]1[C@@H](NC(=O)c2ccc(F)c(Cl)c2)c2cc(C(C)=O)ccc2OC1(C)C [Example 3, (3S,4S)-6-Acetyl-4-[(3-chloro-4-fluorobenzene)amido]-2,2-dimethyl-3,4-dihydro-2H-1-benzopyran-3-yl acetate]",solubility,"[1]; pH 3.5, aqueous buffer",< 250 µg/mL
"CC(=O)OCO[C@H]1[C@@H](NC(=O)c2ccc(F)c(Cl)c2)c2cc(C(C)=O)ccc2OC1(C)C [Example 4, {[(3S,4S)-6-Acetyl-4-[(3-chloro-4-fluorobenzene)amido]-2,2-dimethyl-3,4-dihydro-2H-1-benzopyran-3-yl]oxy}methyl acetate]",solubility,"[1]; pH 3.5, aqueous buffer",< 250 µg/mL
"CC(=O)c1ccc2c(c1)[C@H](NC(=O)c1ccc(F)c(Cl)c1)[C@H](OCOC(=O)CN(C)C)C(C)(C)O2 [Example 5, {[(3S,4S)-6-Acetyl-4-[(3-chloro-4-fluorobenzene)amido]-2,2-dimethyl-3,4-dihydro-2H-1-benzopyran-3-yl]oxy}methyl 2-(dimethylamino)acetate]",solubility,"[1]; aqueous buffer, pH 3.0",> 2000 µg/mL
"CC(=O)c1ccc2c(c1)[C@H](NC(=O)c1ccc(F)c(Cl)c1)[C@H](OC(=O)CN)C(C)(C)O2 [Example 6, (3S,4S)-6-Acetyl-4-[(3-chloro-4-fluorobenzene)amido]-2,2-di methyl-3,4-dihydro-2H-1-benzopyran-3-yl 2-aminoacetate hydrochloride]",solubility,"[1]; aqueous buffer, pH 4.0",> 20000 µg/mL
"CNCC(=O)O[C@H]1[C@@H](NC(=O)c2ccc(F)c(Cl)c2)c2cc(C(C)=O)ccc2OC1(C)C [Example 7, (3S,4S)-6-acetyl-4-[(3-chloro-4-fluorobenzene)amido]-2,2-di methyl-3,4-dihydro-2H-1-benzopyran-3-yl 2-(methylamino)acetate hydrochloride]",solubility,"[1]; pH 4.4, aqueous buffer",> 20000 µg/mL
"CC(=O)c1ccc2c(c1)[C@H](NC(=O)c1ccc(F)c(Cl)c1)[C@H](OCOP(=O)(O)O)C(C)(C)O2 [Example 8, ({[(3S,4S)-6-Acetyl-4-[(3-chloro-4-fluorobenzene)amido]-2,2-dimethyl-3,4-dihydro-2H-1-benzopyran-3-yl]oxy}methoxy)phosphonic acid diamine]",solubility,"[1]; pH 5.7, aqueous buffer",> 200000 µg/mL
"CC(=O)c1ccc2c(c1)[C@H](NC(=O)c1ccc(F)c(Cl)c1)[C@H](OC(=O)[C@@H](N)CC(C)C)C(C)(C)O2.Cl [Example 9, (3S,4S)-6-Acetyl-4-[(3-chloro-4-fluorobenzene)amido]-2,2-di methyl-3,4-dihydro-2H-1-benzopyran-3-yl(2S)-2-amino-4-methylpentanoate hydrochloride]",solubility,"[1]; pH 2.7, aqueous buffer",> 5000 µg/mL
"CCCNCC(=O)O[C@H]1[C@@H](NC(=O)c2ccc(F)c(Cl)c2)c2cc(C(C)=O)ccc2OC1(C)C.Cl [Example 10, (3S,4S)-6-Acetyl-4-[(3-chloro-4-fluorobenzene)amido]-2,2-di methyl-3,4-dihydro-2H-1-benzopyran-3-yl 2-(propylamino)acetate hydrochloride]",solubility,"[1]; pH 4.4, aqueous buffer",> 10000 µg/mL
"CC(=O)c1ccc2c(c1)[C@H](NC(=O)c1ccc(F)c(Cl)c1)[C@H](OC(=O)CNC(C)C)C(C)(C)O2.Cl [Example 11, (3S,4S)-6-Acetyl-4-[(3-chloro-4-fluorobenzene)amido]-2,2-di methyl-3,4-dihydro-2H-1-benzopyran-3-yl 2-[(propan-2-yl)amino]acetate hydrochloride]",solubility,"[1]; pH 4.2, aqueous buffer",> 10000 µg/mL
